Laboratory results as given in patent US9944603B2, “Compounds and methods for the treatment of cystic fibrosis” (Flatley Discovery Lab, LLC, priority 2013, dated 2018).

Molecular target: T1, human F508del CFTR (Homo sapiens, UniProt P13569, DEL508-508)
T1 construct: expressed in transfected cells
Test: CFTR-YFP Assay, CFTR Corrector Protocol (YFP flux assay)
Assay type: cell-based
Settings: for Emax: normalized to the positive control, read-out: EMAX (% Efficacy, EMAX normalized to the positive control)

T1 sequence (P13569 with tags, fused parts or gaps DEL508-508): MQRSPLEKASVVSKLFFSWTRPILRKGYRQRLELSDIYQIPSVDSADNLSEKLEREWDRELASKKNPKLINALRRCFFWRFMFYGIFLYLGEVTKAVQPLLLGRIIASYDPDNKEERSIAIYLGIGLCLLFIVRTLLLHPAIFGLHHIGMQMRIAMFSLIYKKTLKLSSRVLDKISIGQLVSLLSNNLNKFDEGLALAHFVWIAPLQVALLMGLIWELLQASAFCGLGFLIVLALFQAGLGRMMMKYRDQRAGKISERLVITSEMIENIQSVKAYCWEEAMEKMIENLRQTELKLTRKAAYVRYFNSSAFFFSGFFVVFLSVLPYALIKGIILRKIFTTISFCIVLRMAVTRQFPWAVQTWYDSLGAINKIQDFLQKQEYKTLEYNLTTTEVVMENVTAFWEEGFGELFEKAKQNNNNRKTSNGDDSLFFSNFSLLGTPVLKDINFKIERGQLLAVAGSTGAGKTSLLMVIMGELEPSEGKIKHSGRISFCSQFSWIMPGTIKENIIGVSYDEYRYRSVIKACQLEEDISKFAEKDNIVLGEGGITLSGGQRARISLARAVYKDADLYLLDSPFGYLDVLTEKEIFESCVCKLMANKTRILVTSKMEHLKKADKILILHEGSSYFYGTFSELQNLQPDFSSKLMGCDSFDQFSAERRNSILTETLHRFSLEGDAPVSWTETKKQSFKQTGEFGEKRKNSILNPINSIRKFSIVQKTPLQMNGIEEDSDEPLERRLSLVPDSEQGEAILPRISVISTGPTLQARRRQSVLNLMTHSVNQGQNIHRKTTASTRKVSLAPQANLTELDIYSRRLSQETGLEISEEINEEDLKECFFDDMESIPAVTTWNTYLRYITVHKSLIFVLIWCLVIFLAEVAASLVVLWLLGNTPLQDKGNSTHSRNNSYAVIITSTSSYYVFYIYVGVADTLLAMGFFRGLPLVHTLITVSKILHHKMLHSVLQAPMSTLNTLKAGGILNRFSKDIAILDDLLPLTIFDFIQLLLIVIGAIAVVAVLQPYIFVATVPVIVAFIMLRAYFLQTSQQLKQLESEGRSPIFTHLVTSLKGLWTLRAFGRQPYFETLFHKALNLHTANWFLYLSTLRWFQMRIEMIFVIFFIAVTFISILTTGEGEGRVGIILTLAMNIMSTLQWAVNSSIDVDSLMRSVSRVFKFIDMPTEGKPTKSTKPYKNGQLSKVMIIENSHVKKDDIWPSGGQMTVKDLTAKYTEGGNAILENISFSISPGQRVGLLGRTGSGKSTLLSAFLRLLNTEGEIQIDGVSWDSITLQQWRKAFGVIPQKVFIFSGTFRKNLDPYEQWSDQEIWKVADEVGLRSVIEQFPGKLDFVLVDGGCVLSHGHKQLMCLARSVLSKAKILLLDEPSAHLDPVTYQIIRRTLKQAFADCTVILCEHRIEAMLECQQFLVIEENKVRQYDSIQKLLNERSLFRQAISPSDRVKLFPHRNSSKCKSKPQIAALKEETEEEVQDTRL

Row | Structure (SMILES) | EC50 | Emax
1 | O=S(=O)(c1ccc2c(c1)OC(F)(F)O2)N1CCC(n2c(-c3cccnc3Cl)nc3cccnc32)CC1 [Example 102] | < 10 µM | 30 to 80%
2 | O=S(=O)(c1ccc2c(c1)OC(F)(F)O2)N1CCC(n2c(-c3ccccc3)cc3ccccc32)CC1 [Example 104] | < 10 µM | 30 to 80%
3 | O=S(=O)(c1ccc2c(c1)OCO2)N1CCC(n2c(-c3ccc(F)nc3F)nc3cccnc32)CC1 [Example 105] | < 10 µM | 30 to 80%
4 | O=S(=O)(c1ccc2c(c1)OCO2)N1CCC(n2c(-c3ccncc3F)nc3cccnc32)CC1 [Example 107] | < 10 µM | 30 to 80%
5 | O=S(=O)(c1ccc2c(c1)OCO2)N1CCC(n2c(-c3ccc(F)cc3F)nc3cccnc32)CC1 [Example 108] | < 10 µM | 30 to 80%
6 | O=S(=O)(c1ccc2c(c1)OC(F)(F)O2)N1CCC(n2c(-c3ccc(F)cc3F)nc3cccnc32)CC1 [Example 109] | < 10 µM | 30 to 80%
7 | CCc1ccc(S(=O)(=O)N2CCC(n3c(-c4ccncc4F)nc4cccnc43)CC2)cc1 [Example 110] | < 10 µM | 30 to 80%
8 | CCc1ccc(S(=O)(=O)N2CCC(n3c(-c4ccc(F)nc4F)nc4cccnc43)CC2)cc1 [Example 111] | < 10 µM | 30 to 80%
9 | Cc1ccc2nc(-c3ccncc3F)n(C3CCN(S(=O)(=O)c4ccc5c(c4)OC(F)(F)O5)CC3)c2n1 [Example 112] | < 10 µM | > 80%
10 | CCc1ccc(S(=O)(=O)N2CCC(n3c(-c4ccncc4F)nc4ccc(C)nc43)CC2)cc1 [Example 113] | < 10 µM | 30 to 80%
11 | O=S(=O)(c1ccc2c(c1)OC(F)(F)O2)N1CCC(n2c(-c3ccncc3F)nc3ncccc32)CC1 [Example 116] | < 10 µM | > 80%
12 | O=S(=O)(c1ccc2c(c1)CCO2)N1CCC(n2c(-c3ccncc3F)nc3cccnc32)CC1 [Example 117] | < 10 µM | 30 to 80%
13 | O=S(=O)(c1ccc2c(c1)OC(F)(F)O2)N1CCC(n2c(-c3cccnc3F)nc3cccnc32)CC1 [Example 119] | < 10 µM | > 80%
14 | O=S(=O)(c1ccc2c(c1)CCO2)N1CCC(n2c(-c3ccc(F)cc3F)nc3cccnc32)CC1 [Example 121] | < 10 µM | 30 to 80%
15 | O=S(=O)(c1ccc2c(c1)CCC2)N1CCC(n2c(-c3ccc(F)cc3F)nc3cccnc32)CC1 [Example 122] | < 10 µM | > 80%
16 | O=S(=O)(c1ccc2c(c1)OCO2)N1CCC(n2c(-c3cccnc3F)nc3cccnc32)CC1 [Example 123] | < 10 µM | 10 to 30%
17 | O=S(=O)(c1ccc2c(c1)OC(F)(F)O2)N1CCC(n2c(-c3ccc(F)cc3C(F)(F)F)nc3cccnc32)CC1 [Example 125] | < 10 µM | 30 to 80%
18 | O=S(=O)(c1ccc2c(c1)OC(F)(F)O2)N1CCC(n2c(-c3ccccc3OC(F)F)nc3cccnc32)CC1 [Example 126] | < 10 µM | 30 to 80%
19 | COc1ccc2nc(-c3ccncc3F)n(C3CCN(S(=O)(=O)c4ccc5c(c4)OC(F)(F)O5)CC3)c2n1 [Example 127] | < 10 µM | 30 to 80%

Row | Structure (SMILES) | EC50 | Emax
20 | O=S(=O)(c1ccc2c(c1)OC(F)(F)O2)N1CCC(n2c(-c3ccncn3)nc3cccnc32)CC1 [Example 128] | < 10 µM | 10 to 30%
21 | Cc1nc2ccc(S(=O)(=O)N3CCC(n4c(-c5ccncc5F)nc5cccnc54)CC3)cc2s1 [Example 132] | < 10 µM | 30 to 80%
22 | [2H]C1([2H])Oc2ccc(S(=O)(=O)N3CCC(n4c(-c5cccnc5Cl)nc5cccnc54)CC3)cc2O1 [Example 135] | 10 to 20 µM | 10 to 30%
23 | [2H]C1([2H])Oc2ccc(S(=O)(=O)N3CCC(n4c(-c5ccncc5F)nc5cccnc54)CC3)cc2O1 [Example 136] | < 10 µM | 10 to 30%
24 | O=S(=O)(c1ccc2c(c1)OC(F)(F)O2)N1CCC(n2c(-c3ccncc3Cl)nc3cnccc32)CC1 [Example 137] | 10 to 20 µM | 10 to 30%
25 | CCc1ccc(S(=O)(=O)N2CCC(n3c(-c4ccncc4F)nc4ccc(OC)nc43)CC2)cc1 [Example 138] | > 20 µM | 30 to 80%
26 | Cc1noc2ccc(S(=O)(=O)N3CCC(n4c(-c5ccc(F)cc5F)nc5cccnc54)CC3)cc12 [Example 140] | > 20 µM | 10 to 30%
27 | Cc1cc2cc(S(=O)(=O)N3CCC(n4c(-c5ccncc5F)nc5cccnc54)CC3)ccc2[nH]1 [Example 142] | < 10 µM | 10 to 30%
28 | Cc1cc2cc(S(=O)(=O)N3CCC(n4c(-c5ccc(F)cc5F)nc5cccnc54)CC3)ccc2[nH]1 [Example 143] | < 10 µM | 10 to 30%
29 | CC(=O)N1c2ccc(S(=O)(=O)N3CCC(n4c(-c5ccncc5F)nc5cccnc54)CC3)cc2CC1C (centres unmarked) [Example 145] | < 10 µM | 10 to 30%
30 | CC(=O)N1c2ccc(S(=O)(=O)N3CCC(n4c(-c5ccc(F)cc5F)nc5cccnc54)CC3)cc2CC1C (centres unmarked) [Example 146] | < 10 µM | 10 to 30%
31 | CC1Cc2cc(S(=O)(=O)N3CCC(n4c(-c5ccncc5F)nc5cccnc54)CC3)ccc2N1 (centres unmarked) [Example 148] | < 10 µM | 10 to 30%
32 | CC1Cc2cc(S(=O)(=O)N3CCC(n4c(-c5ccc(F)cc5F)nc5cccnc54)CC3)ccc2N1 (centres unmarked) [Example 149] | < 10 µM | 10 to 30%
33 | COc1ccc2c(c1)nc(-c1ccncc1F)n2C1CCN(S(=O)(=O)c2ccc3c(c2)OC(F)(F)O3)CC1 [Example 150] | 10 to 20 µM | 30 to 80%
34 | CCc1ccc(S(=O)(=O)N2CCC(n3c(-c4ccncc4F)nc4cc(OC)ccc43)CC2)cc1 [Example 151] | < 10 µM | 30 to 80%
35 | CC(=O)N1c2ccc(S(=O)(=O)N3CCC(n4c(-c5ccncn5)nc5cccnc54)CC3)cc2CC1C (centres unmarked) [Example 152] | 10 to 20 µM | 10 to 30%
36 | CCc1ccc(S(=O)(=O)N2CCC(n3c(-c4ccccc4Cl)nc4cc(OC)ccc43)CC2)cc1 [Example 155] | < 10 µM | 30 to 80%
37 | O=S(=O)(c1ccc2cc[nH]c2c1)N1CCC(n2c(-c3ccncc3Cl)nc3cccnc32)CC1 [Example 161] | 10 to 20 µM | 10 to 30%

More lines, now with the values ahead:

Row | EC50 | Emax | Structure (SMILES)
38 | < 10 µM | 10 to 30% | COc1ccc(S(=O)(=O)N2CCC(n3c(-c4ccccc4)cc4ccccc43)CC2)cc1Cl [Example 103]
39 | < 10 µM | 10 to 30% | O=S(=O)(c1ccc2c(c1)OC(F)(F)O2)N1CCC(n2c(-c3ccc(F)nc3F)nc3cccnc32)CC1 [Example 106]
40 | < 10 µM | 30 to 80% | Cc1ccc2nc(-c3ccncn3)n(C3CCN(S(=O)(=O)c4ccc5c(c4)OC(F)(F)O5)CC3)c2n1 [Example 114]
41 | < 10 µM | 30 to 80% | CCc1ccc(S(=O)(=O)N2CCC(n3c(-c4ccncn4)nc4ccc(C)nc43)CC2)cc1 [Example 115]
42 | < 10 µM | 30 to 80% | COc1ccc2nc(-c3ccncc3Cl)n(C3CCN(S(=O)(=O)c4ccc5c(c4)OC(F)(F)O5)CC3)c2n1 [Example 118]
43 | < 10 µM | > 80% | CCc1ccc(S(=O)(=O)N2CCC(n3c(-c4cccnc4F)nc4cccnc43)CC2)cc1 [Example 120]
44 | < 10 µM | 30 to 80% | O=S(=O)(c1ccc2c(c1)OC(F)(F)O2)N1CCC(n2c(-c3ccccc3OC(F)(F)F)nc3cccnc32)CC1 [Example 124]
45 | < 10 µM | 10 to 30% | O=S(=O)(c1ccc(OC(F)F)cc1)N1CCC(n2c(-c3ccncc3F)nc3nccnc32)CC1 [Example 129]
46 | < 10 µM | 30 to 80% | O=S(=O)(c1ccc2c(c1)OC(F)(F)O2)N1CCC(n2c(-c3ccccc3F)nc3cccnc32)CC1 [Example 130]
47 | < 10 µM | 10 to 30% | CCc1ccc(S(=O)(=O)N2CCC(n3c(-c4ccncn4)nc4cccnc43)CC2)cc1 [Example 131]
48 | < 10 µM | > 80% | Cc1nc2ccc(S(=O)(=O)N3CCC(n4c(-c5ccncc5F)nc5cccnc54)CC3)cc2o1 [Example 133]
49 | < 10 µM | 30 to 80% | Cc1nc2ccc(S(=O)(=O)N3CCC(n4c(-c5ccc(F)cc5F)nc5cccnc54)CC3)cc2o1 [Example 134]
50 | > 20 µM | 10 to 30% | Cc1noc2ccc(S(=O)(=O)N3CCC(n4c(-c5ccncc5F)nc5cccnc54)CC3)cc12 [Example 139]
51 | < 10 µM | 10 to 30% | Cc1n[nH]c2ccc(S(=O)(=O)N3CCC(n4c(-c5ccncc5F)nc5cccnc54)CC3)cc12 [Example 141]
52 | < 10 µM | 10 to 30% | Cc1n[nH]c2ccc(S(=O)(=O)N3CCC(n4c(-c5ccc(F)cc5F)nc5cccnc54)CC3)cc12 [Example 144]
53 | < 10 µM | 10 to 30% | Cc1cc2cc(S(=O)(=O)N3CCC(n4c(-c5ccncn5)nc5cccnc54)CC3)ccc2[nH]1 [Example 147]
54 | < 10 µM | 30 to 80% | COc1ccc2c(c1)nc(-c1ccccc1Cl)n2C1CCN(S(=O)(=O)c2ccc3c(c2)OC(F)(F)O3)CC1 [Example 153]
55 | < 10 µM | 30 to 80% | COc1ccc2c(c1)nc(-c1ccncc1Cl)n2C1CCN(S(=O)(=O)c2ccc3c(c2)OC(F)(F)O3)CC1 [Example 154]
56 | < 10 µM | 30 to 80% | CCc1ccc(S(=O)(=O)N2CCC(n3c(-c4ccncc4Cl)nc4cc(OC)ccc43)CC2)cc1 [Example 156]
57 | < 10 µM | 10 to 30% | O=S(=O)(c1ccc2snc(Cl)c2c1)N1CCC(n2c(-c3ccncc3Cl)nc3cccnc32)CC1 [Example 157]
58 | 10 to 20 µM | 10 to 30% | O=S(=O)(c1ccc2snc(Cl)c2c1)N1CCC(n2c(-c3ccncc3F)nc3cccnc32)CC1 [Example 158]
59 | < 10 µM | 10 to 30% | O=S(=O)(c1ccc2snc(Cl)c2c1)N1CCC(n2c(-c3ccc(F)cc3F)nc3cccnc32)CC1 [Example 159]
60 | < 10 µM | 30 to 80% | COc1ccc2c(c1)nc(-c1ccncc1Cl)n2C1CCN(S(=O)(=O)c2ccc3nc(C)oc3c2)CC1 [Example 160]
61 | < 10 µM | 10 to 30% | O=S(=O)(c1ccc2cc[nH]c2c1)N1CCC(n2c(-c3ccncc3F)nc3cccnc32)CC1 [Example 162]
